Reference: the Kinase Knowledgebase extract (Sharma et al. 2016)

Biological target: MAPK14 (human) (UniProt Q16539)
Test: Enzyme Assay

MAPK14 (human), sequence (Q16539 whole entry, looked up): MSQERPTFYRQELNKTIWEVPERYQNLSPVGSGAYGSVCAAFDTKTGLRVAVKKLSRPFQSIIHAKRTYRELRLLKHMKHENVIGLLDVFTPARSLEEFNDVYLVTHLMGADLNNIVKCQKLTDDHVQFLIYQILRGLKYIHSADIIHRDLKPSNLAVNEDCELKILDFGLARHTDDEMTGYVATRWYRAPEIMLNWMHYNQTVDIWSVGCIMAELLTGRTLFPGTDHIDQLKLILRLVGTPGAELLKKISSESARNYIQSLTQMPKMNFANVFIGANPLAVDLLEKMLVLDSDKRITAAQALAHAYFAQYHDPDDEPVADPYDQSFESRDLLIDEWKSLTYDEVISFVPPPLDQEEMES

Row | IC50 | SMILES
1 | < 10 nM | C[C@H]1CCCCN1c1nnc2ccc(O[C@@H]3CC[C@H](NC(=O)Nc4cc(C(C)(C)C)nn4-c4cccc(CCN5CCOCC5)c4)c4ccccc43)cn12
2 | < 10 nM | Cc1ccc(-n2nc(C(C)(C)C)cc2NC(=O)N[C@H]2CC[C@@H](Oc3ccc4nnc(N5CC[C@H](O)C5)n4c3)c3ccccc32)cc1
3 | < 10 nM | CN(C)CCOc1cccc(-n2nc(C(C)(C)C)cc2NC(=O)N[C@H]2CC[C@@H](Oc3ccc4nnc(N5CCCCC56CC6)n4c3)c3ccccc32)c1
4 | < 10 nM | Cc1ccc(-n2nc(C(C)(C)C)cc2NC(=O)N[C@H]2CC[C@@H](Oc3ccc4nnc([C@@H]5CCCN5)n4c3)c3ccccc32)cc1
5 | < 10 nM | CN1CCC[C@H]1c1nnc2ccc(O[C@@H]3CC[C@H](NC(=O)Nc4cc(C(C)(C)C)nn4-c4ccc(CO)cc4)c4ccccc43)cn12
6 | < 10 nM | C[C@H]1CCCCN1c1nnc2ccc(O[C@@H]3CC[C@H](NC(=O)Nc4cc(C(C)(C)C)nn4-c4cccc(CN5CCN(C)CC5)c4)c4ccccc43)cn12
7 | < 10 nM | Cc1ccc(-n2nc(C(C)(C)C)cc2NC(=O)N[C@H]2CC[C@@H](Oc3ccc4nnc([C@@H]5CCCCN5C)n4c3)c3ccccc32)cc1
8 | < 10 nM | Cc1ccc(-n2nc(C(C)(C)C)cc2NC(=O)N[C@H]2CC[C@@H](Oc3ccc4nnc(N5CCC[C@@H]5CO)n4c3)c3ccccc32)cc1
9 | < 10 nM | Cc1ccc(-n2nc(C(C)(C)C)cc2NC(=O)N[C@H]2CC[C@@H](Oc3ccc4nnc(N5CCC(CCO)CC5)n4c3)c3ccccc32)cc1
10 | < 10 nM | Cc1ccc(-n2nc(C(C)(C)C)cc2NC(=O)N[C@H]2CC[C@@H](Oc3ccc4nnc(CN5CCNCC5)n4c3)c3ccccc32)cc1
11 | < 10 nM | CN(C)CCOc1cccc(-n2nc(C(C)(C)C)cc2NC(=O)N[C@H]2CC[C@@H](Oc3ccc4nnc(N5CCCCC5)n4c3)c3ccccc32)c1
12 | < 10 nM | CCN1CCC[C@H]1c1nnc2ccc(O[C@@H]3CC[C@H](NC(=O)Nc4cc(C(C)(C)C)nn4-c4ccc(C)cc4)c4ccccc43)cn12
13 | < 10 nM | C[C@@H]1CCC[C@H](C)N1c1nnc2ccc(O[C@@H]3CC[C@H](NC(=O)Nc4cc(F)cc(N5CCOCC5)c4)c4ccccc43)cn12
14 | < 10 nM | Cc1ccc(-n2nc(C(C)(C)C)cc2NC(=O)N[C@H]2CC[C@@H](Oc3cc(C)c4nnc([C@@H]5CCCN5C)n4c3)c3ccccc32)cc1
15 | < 10 nM | CN1CCN(Cc2cccc(-n3nc(C(C)(C)C)cc3NC(=O)N[C@H]3CC[C@@H](Oc4ccc5nnc(N6CCCCC6)n5c4)c4ccccc43)c2)CC1
16 | < 10 nM | CC(C)(C)c1cc(NC(=O)N[C@H]2CC[C@@H](Oc3ccc4nnc(N5CCCCC5)n4c3)c3ccccc32)n(-c2cnn(CCN3CCOCC3)c2)n1
17 | < 10 nM | C[C@H]1CCCCN1c1nnc2ccc(O[C@@H]3CC[C@H](NC(=O)Nc4cc(C(C)(C)C)nn4-c4cccc(OCCN(C)C)c4)c4ccccc43)cn12
18 | < 10 nM | COc1c(NC(=O)N[C@H]2CC[C@@H](Oc3ccc4nnc(N5CCCCC5)n4c3)c3ccccc32)cc(C(C)(C)C)cc1NS(C)(=O)=O
19 | < 10 nM | Cc1ccc(-c2nc(C(C)(C)C)[nH]c2NC(=O)N[C@H]2CC[C@@H](Oc3ccc4nnc(N5CCCCC5)n4c3)c3ccccc32)cc1

Row | IC50 | SMILES
20 | < 10 nM | CC(C)(C)c1cc(NC(=O)N[C@H]2CC[C@@H](Oc3ccc4nnc(N5CCCCC5)n4c3)c3ccccc32)n(-c2cccc(CN3CCCCC3)c2)n1
21 | < 10 nM | Cc1ccc(-n2nc(C(C)(C)C)cc2NC(=O)N[C@H]2CC[C@@H](Oc3ccc4nnc(N5CCCCCC5)n4c3)c3ccccc32)cc1
22 | < 10 nM | Cc1ccc(-n2nc(C(C)(C)C)cc2NC(=O)N[C@H]2CC[C@@H](Oc3ccc4nnc(CCN5CCCC5)n4c3)c3ccccc32)cc1
23 | < 10 nM | CC(C)N(c1nnc2ccc(O[C@@H]3CC[C@H](NC(=O)Nc4cc(C(C)(C)C)nn4-c4cccc(OCCN(C)C)c4)c4ccccc43)cn12)C(C)C
24 | < 10 nM | Cc1ccc(-n2nc(C(C)(C)C)cc2NC(=O)N[C@H]2CC[C@@H](Oc3ccc4nnc(C(C)(C)N5CCCC5)n4c3)c3ccccc32)cc1
25 | < 10 nM | Cc1ccc(-n2nc(C(C)(C)C)cc2NC(=O)N[C@H]2CC[C@@H](Oc3ccc4nnc([C@@H]5CCN(C)C5)n4c3)c3ccccc32)cc1
26 | < 10 nM | Cc1ccc(-n2nc(C(C)(C)C)cc2NC(=O)N[C@H]2CC[C@@H](Oc3ccc4nnc(N5CCCCC5)n4c3)c3ccccc32)cc1
27 | < 10 nM | C[C@H]1CCCCN1c1nnc2ccc(O[C@@H]3CC[C@H](NC(=O)Nc4cc(C(C)(C)C)nn4-c4ccc(CN5CCCCC5)cc4)c4ccccc43)cn12
28 | < 10 nM | Cc1ccc(-n2nc(C(C)(C)C)cc2NC(=O)N[C@H]2CC[C@@H](Oc3ccc4nnc(CN5CCN(C)C(CO)C5)n4c3)c3ccccc32)cc1 (some centres not stated)
29 | < 10 nM | Cc1ccc(-n2nc(C(C)(C)C)cc2NC(=O)N[C@H]2CC[C@@H](Oc3ccc4nnc(N5CCCOCC5)n4c3)c3ccccc32)cc1
30 | < 10 nM | C[C@H]1CCCCN1c1nnc2ccc(O[C@@H]3CC[C@H](NC(=O)Nc4cc(C(C)(C)C)nn4-c4cccc(OCCN5C6CCC5COC6)c4)c4ccccc43)cn12
31 | < 10 nM | COC1CCN(CCOc2cccc(-n3nc(C(C)(C)C)cc3NC(=O)N[C@H]3CC[C@@H](Oc4ccc5nnc(N6CCCC[C@@H]6C)n5c4)c4ccccc43)c2)CC1
32 | < 10 nM | C[C@@H]1CCC[C@H](C)N1c1nnc2ccc(O[C@@H]3CC[C@H](NC(=O)Nc4cc(C(C)(C)C)nn4-c4cnn(CCN(C)C)c4)c4ccccc43)cn12
33 | < 10 nM | Cc1ccc(-n2nc(C(C)(C)C)cc2NC(=O)N[C@H]2CC[C@@H](Oc3ccc4nnc([C@]5(C)CCCN5C)n4c3)c3ccccc32)cc1
34 | < 10 nM | C[C@H]1CCCCN1c1nnc2ccc(O[C@@H]3CC[C@H](NC(=O)Nc4cc(C(C)(C)C)nn4-c4ccc(CN5CCC(F)CC5)cc4)c4ccccc43)cn12
35 | < 10 nM | COCCN(C)Cc1ccc(-n2nc(C(C)(C)C)cc2NC(=O)N[C@H]2CC[C@@H](Oc3ccc4nnc(N5CCCC[C@@H]5C)n4c3)c3ccccc32)cc1
36 | < 10 nM | Cc1ccc(-n2nc(C(C)(C)C)cc2NC(=O)N[C@H]2CC[C@@H](Oc3ccc4nnc(-c5cccc(CN6CCOCC6)c5)n4c3)c3ccccc32)cc1
37 | < 10 nM | CCN(C)Cc1ccc(-n2nc(C(C)(C)C)cc2NC(=O)N[C@H]2CC[C@@H](Oc3ccc4nnc(N5CCCC[C@@H]5C)n4c3)c3ccccc32)cc1
